{"source": "ChEMBL document CHEMBL5728593", "about": "“Small molecule inhibitors of Galectin-3” (2021)", "biological_target": "Galectin-3 (Homo sapiens, UniProt P17931)", "sequence (P17931 whole entry)": "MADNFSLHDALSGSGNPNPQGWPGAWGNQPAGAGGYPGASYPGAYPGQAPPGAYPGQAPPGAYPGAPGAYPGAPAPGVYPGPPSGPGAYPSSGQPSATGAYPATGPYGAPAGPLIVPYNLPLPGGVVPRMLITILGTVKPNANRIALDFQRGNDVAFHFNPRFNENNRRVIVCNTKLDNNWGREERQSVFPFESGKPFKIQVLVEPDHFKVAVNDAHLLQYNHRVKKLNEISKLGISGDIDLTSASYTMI", "assay": "Biological Assay: ASSAY BUFFER Composition: 25 mM HEPES, 100 mM NaCl, 0.005% Tween 20, 0.05% BSA prepared in sterile water (all reagents from Sigma). PROTOCOL: The Gal-3 assays were performed in 384 white Opti plates in three replicates at room temperature with gentle shaking at 250-300 rpm From the original stocks, […] working stock concentrations of His-tagged recombinant human Gal-3 (hGal-3) and that of B-ASF were prepared. From the working stock, 20 μl of hGal-3 (15 nM) and 20 μl B-ASF (15 nM) were added to the plates. In Negative Control, only hGal-3 was added. A concentration range of 50× working stocks were prepared for the compounds in 100% DMSO. Aliquots of 1 uL of the compounds were added to the wells and pre-incubated with 20 μl hGal-3 per well for 30 minutes Then 20 μl B-ASF were added and incubated for another 1 hour. To detect the signal, 5 μ(final conc. of 1.0 nM) terbium labelled Anti-His antibody was added and incubated for 30 min followed by adding 5 μ(final conc. of 20 nM) Streptavidin d2 and incubation for another 1 hour. The assay signal was detected using HTRF screen protocol (Excitation wavelength=340 nm, emission wavelength=615 nm/665 nm) on Envision 2104 Multilabel Reader. Data analysed using Toolset and Curve Master. Results are reported in the experimental section (IC50 in μM).", "data": [{"compound": "COCCO[C@@H]1[C@@H](n2cc(-c3cc(F)c(F)c(F)c3)nn2)[C@@H](O)[C@@H](CO)O[C@@H]1Sc1ccc(Cl)c(Cl)c1", "values": [{"measurement": "IC50", "result": 224, "unit": "nM"}]}, {"compound": "NC(=O)CO[C@@H]1[C@@H](n2cc(-c3cc(F)c(F)c(F)c3)nn2)[C@@H](O)[C@@H](CO)O[C@@H]1Sc1ccc(Cl)c(Cl)c1", "values": [{"measurement": "IC50", "result": 200, "unit": "nM"}]}]}
